Laboratory results as given in article PMC6600881 (Gut Pathogens, 2019).

Target: T1, P. aeruginosa PGDH (SerA) (Pseudomonas aeruginosa, UniProt Q9I6H5)
T1 construct: full-length ORF, N-terminal GST fusion (pGEX-6P-1), GST cut off on resin by protease, expressed in E. coli BL21, 44 kDa
T1 sequence (Q9I6H5 1-409): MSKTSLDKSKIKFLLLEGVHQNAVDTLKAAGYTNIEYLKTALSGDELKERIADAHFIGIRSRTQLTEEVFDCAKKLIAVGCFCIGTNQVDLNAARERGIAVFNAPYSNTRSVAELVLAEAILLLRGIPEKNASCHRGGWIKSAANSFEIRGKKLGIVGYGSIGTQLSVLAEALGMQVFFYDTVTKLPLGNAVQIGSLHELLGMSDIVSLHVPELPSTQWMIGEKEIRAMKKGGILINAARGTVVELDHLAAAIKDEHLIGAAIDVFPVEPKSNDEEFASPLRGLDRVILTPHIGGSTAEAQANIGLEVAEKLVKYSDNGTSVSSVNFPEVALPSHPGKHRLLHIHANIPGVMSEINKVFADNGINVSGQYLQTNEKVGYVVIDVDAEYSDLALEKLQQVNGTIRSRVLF
Test: NADH formation at […] nm
Assay type: biochemical

SMILES | IC50 [mM]
N[C@@H](CO)C(=O)O [L-serine] | 0.63
N[C@H](CO)C(=O)O [D-serine] | 76
